Results published in patent publication US8959984B2, “Proteome-wide quantification of small molecule binding to cellular target proteins” (priority 2007, dated 2015).
Where “and” joins values, the source holds several entries; their conditions need not be identical. Identical values can stand only once. Like-named read-outs stand apart in the source and are kept apart here.

How the values were obtained:
MET = MET (Homo sapiens, UniProt P08581); test: binding to AX14596 beads (HeLa lysate, SILAC MS)
Sequence of MET (P08581 25-1390): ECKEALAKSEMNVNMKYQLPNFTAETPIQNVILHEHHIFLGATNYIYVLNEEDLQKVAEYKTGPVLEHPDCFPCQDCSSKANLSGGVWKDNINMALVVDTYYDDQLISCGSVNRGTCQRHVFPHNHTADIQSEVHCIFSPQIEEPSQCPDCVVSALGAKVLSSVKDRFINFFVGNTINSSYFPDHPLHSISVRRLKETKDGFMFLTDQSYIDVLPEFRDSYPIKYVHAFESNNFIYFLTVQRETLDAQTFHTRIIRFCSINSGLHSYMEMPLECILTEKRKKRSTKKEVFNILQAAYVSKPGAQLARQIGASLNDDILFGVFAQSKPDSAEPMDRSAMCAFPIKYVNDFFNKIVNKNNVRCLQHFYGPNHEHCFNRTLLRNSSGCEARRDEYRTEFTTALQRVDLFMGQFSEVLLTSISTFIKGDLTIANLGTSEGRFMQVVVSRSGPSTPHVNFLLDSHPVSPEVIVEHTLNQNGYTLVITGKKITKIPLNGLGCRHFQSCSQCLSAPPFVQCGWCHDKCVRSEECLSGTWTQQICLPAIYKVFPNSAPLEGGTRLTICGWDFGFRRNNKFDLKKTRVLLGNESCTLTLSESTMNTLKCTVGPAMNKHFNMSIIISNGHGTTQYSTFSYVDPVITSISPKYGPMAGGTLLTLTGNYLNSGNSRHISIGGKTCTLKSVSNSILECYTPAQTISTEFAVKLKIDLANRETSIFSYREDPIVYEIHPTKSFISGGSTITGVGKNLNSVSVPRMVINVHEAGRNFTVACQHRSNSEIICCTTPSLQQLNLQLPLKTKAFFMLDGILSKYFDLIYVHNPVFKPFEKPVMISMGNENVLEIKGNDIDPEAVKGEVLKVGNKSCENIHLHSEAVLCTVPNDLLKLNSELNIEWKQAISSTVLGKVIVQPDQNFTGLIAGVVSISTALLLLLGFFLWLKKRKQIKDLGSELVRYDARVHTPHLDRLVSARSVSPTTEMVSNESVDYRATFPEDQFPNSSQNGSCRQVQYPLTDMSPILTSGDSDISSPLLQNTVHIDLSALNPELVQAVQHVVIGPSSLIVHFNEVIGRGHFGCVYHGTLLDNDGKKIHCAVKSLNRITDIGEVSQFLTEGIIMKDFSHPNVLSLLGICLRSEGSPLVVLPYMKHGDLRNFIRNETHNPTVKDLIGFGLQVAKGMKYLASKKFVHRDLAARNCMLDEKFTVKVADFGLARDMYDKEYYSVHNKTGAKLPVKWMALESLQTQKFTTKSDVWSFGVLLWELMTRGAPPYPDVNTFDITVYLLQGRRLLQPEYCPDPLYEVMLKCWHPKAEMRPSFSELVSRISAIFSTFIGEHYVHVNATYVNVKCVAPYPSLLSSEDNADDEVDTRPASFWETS
Protocol: (§1) Differentially SILAC-encoded cell lysates were either incubated with the inhibitor beads displaying immobilized AX14596 or control resin devoid of ligand. In parallel, the supernatant from the first binding step was subjected to a second incubation with the AX14596 resin (FIG. 4). The resulting three elution fractions were combined, resolved by gel electrophoresis, proteolytically digested and the relative abundance of the retained proteins quantified. Proteins showing considerable binding to the control resin were identified as non-specific interactors and therefore not considered further. […] These target-specific ratios were similar in “label switch” experiments (FIGS. 6a and 6c). The binding equilibrium was determined in parallel control SILAC experiments as well as the excess of the immobilized compound over its cellular targets, the excess preferably being a molar excess (FIG. 7 and FIG. 8).
(§2) Cysteine carbamidomethylation was set as a fixed modification and N-acetyl protein and oxidized methionine were allowed as variable modifications. Spectra that were determined to result from heavy labeled peptides in the pre-search detection of SILAC partners by MaxQuant were searched with the fixed modifications Lys^4, Lys^8, Arg^6 and Arg^10, whereas MS/MS spectra for which no SILAC state could be assigned before database searching were searched with Lys^4, Lys^8, Arg^6 and Arg^10 as variable modifications. The mass tolerance was set to 5 ppm for monoisotopic precursor ions and to 0.5 Da for MS/MS peaks. The minimum peptide length was set to 6 amino acids and up to three missed cleavages and three isotopically labeled amino acids were permitted per peptide. The accepted false discovery rate (FDR) was 1% for the proteins and peptides. The cut-off for the posterior error probability (PEP) of peptides was set to 10%. Peptide PEPs were determined by generating Mascot score and peptide-length-dependent histograms for both the forward and the reverse hits and then deriving the probability of a false identification for a given top-scoring peptide using Bayes' theorem. The PEPs of peptides belonging to the same proteins were then multiplied. Each peptide sequence was considered only once with the lowest PEP determined in case of multiple sequencing of the same isotopic pattern or of peptide species with different SILAC, charge or modification states. Proteins were then sorted according to their products of their peptide PEPs and included until a FDR of 1% was reached according to the fraction of reverse proteins contained in the protein list. In addition to the FDR threshold applied for protein identification, proteins were only included when they were identified with at least two peptides (of which one was required to be unique for the protein) and quantified if at least on quantifiable SILAC pair was associated with them. Outliers were not removed as protein ratios were calculated as the median instead of the average of all peptide ratios. For peptides shared among different identified proteins, SILAC ratios were only considered for the ratio of the protein identified with the highest number of unique peptides. Protein ratios for the different in vitro association experiments were corrected for the initial SILAC pooling ratio, which was determined from the median of protein ratios in pooled SILAC-encoded cell extracts.

RIPK2 = RIPK2 (Homo sapiens, UniProt O43353); test: binding to AX14596 beads (HeLa lysate, SILAC MS)
Sequence of RIPK2 (O43353 whole entry): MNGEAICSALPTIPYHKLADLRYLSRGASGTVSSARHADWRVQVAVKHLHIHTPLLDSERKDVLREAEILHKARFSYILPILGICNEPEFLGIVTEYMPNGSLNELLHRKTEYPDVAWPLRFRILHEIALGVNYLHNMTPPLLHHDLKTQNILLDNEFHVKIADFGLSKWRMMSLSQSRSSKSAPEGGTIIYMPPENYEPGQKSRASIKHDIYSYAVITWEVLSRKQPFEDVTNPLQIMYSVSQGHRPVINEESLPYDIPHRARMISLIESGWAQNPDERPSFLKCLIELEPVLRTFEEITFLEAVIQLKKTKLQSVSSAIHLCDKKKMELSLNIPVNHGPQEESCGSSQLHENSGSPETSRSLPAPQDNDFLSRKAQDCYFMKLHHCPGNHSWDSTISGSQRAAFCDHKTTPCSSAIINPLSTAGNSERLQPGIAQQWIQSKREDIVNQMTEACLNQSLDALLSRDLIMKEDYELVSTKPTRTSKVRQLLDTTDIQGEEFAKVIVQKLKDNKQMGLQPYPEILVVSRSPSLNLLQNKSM
Protocol: as §1, §2

NT5DC1 (IPI00177965) = target: T1, NT5DC1 (IPI00177965) (Homo sapiens, UniProt Q5TFE4); test: binding to VI16742 beads (HeLa lysate, SILAC MS)
T1 construct: endogenous in cells; host or cells: HeLa S3 cell lysate
T1 sequence (Q5TFE4 1-455): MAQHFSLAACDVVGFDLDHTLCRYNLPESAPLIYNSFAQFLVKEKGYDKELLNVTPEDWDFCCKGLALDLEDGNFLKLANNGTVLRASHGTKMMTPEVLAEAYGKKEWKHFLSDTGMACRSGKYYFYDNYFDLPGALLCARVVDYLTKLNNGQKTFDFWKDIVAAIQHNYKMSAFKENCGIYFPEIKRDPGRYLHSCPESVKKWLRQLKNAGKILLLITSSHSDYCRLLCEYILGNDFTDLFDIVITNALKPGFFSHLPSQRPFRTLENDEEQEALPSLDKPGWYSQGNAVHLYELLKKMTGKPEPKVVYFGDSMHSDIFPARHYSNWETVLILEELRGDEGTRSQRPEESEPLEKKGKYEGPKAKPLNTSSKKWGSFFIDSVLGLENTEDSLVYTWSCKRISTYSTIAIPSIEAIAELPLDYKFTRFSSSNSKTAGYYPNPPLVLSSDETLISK

BUB1 = target: T2, BUB1 (Homo sapiens, UniProt O43683); test: binding to immobilized V16742 (IVA1/IVA2, HeLa lysate, MS)
T2 construct: endogenous in cells; host or cells: HeLa S3
T2 sequence (O43683 whole entry): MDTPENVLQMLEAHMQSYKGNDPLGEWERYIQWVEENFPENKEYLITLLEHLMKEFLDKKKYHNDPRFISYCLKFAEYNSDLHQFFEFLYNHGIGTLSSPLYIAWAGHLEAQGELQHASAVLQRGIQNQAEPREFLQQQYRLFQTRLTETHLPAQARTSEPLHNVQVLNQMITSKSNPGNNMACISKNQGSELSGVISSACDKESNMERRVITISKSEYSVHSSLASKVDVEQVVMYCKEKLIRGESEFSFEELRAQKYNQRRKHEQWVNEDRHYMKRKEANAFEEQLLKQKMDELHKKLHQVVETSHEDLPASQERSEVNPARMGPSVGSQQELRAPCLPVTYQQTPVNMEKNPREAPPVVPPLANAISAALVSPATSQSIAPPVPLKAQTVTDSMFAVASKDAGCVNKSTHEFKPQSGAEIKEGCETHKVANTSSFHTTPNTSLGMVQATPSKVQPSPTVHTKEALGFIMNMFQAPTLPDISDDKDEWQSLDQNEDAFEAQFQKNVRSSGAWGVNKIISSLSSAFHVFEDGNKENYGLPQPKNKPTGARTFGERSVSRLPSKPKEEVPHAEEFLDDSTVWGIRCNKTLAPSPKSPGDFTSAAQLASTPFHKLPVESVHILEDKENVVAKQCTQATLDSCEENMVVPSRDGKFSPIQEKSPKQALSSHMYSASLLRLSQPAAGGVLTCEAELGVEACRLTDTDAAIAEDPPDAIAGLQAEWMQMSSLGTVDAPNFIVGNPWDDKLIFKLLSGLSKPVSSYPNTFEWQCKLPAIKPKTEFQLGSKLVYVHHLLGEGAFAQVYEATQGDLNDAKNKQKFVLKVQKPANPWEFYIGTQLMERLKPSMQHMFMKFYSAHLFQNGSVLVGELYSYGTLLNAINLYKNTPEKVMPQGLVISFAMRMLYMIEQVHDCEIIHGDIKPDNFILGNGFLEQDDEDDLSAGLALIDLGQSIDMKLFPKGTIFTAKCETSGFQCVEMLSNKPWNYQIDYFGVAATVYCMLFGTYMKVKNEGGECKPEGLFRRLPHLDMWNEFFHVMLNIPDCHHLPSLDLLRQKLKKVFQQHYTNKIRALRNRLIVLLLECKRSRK

MAP3K2 = target: T3, MAP3K2 (Homo sapiens, UniProt Q9Y2U5); test: as above
T3 construct: endogenous in cells; host or cells: HeLa S3
T3 sequence (Q9Y2U5 1-619): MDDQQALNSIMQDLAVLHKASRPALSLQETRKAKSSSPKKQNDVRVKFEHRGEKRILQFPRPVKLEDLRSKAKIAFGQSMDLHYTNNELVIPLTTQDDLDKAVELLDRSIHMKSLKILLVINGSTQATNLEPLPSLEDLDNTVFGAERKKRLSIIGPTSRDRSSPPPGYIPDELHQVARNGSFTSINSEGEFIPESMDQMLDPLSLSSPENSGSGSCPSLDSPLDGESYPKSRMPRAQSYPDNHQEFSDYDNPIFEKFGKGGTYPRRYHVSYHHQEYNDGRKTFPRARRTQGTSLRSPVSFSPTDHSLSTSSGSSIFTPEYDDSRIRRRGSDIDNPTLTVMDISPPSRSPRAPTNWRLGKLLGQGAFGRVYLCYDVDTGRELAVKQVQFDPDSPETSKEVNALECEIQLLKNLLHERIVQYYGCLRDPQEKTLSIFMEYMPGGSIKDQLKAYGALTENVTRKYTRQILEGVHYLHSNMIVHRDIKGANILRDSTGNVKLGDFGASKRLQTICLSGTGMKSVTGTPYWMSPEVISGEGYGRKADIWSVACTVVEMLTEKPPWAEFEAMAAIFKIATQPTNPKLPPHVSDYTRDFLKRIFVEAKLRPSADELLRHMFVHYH

COc1cc2ncnc(Nc3ccc(F)c(Cl)c3)c2cc1OCCCN [AX14596]
Ki (MET): 267 µM
r (3 mg/1 mg lysate) (MET): 2.30
r (5 h/2.5 h inc. time) (MET): 1.12
rAVERAGE (2. inc/1. inc) (MET): 0.73
rAVERAGE (control/1. inc) (MET): 0.06
% BOUND (MET; bound to AX14596 beads): 27%
Ki (RIPK2): 6.2 µM and 6.19 µM
r (3 mg/1 mg lysate) (RIPK2): 2.68
r (5 h/2.5 h inc. time) (RIPK2): 0.90
rAVERAGE (2. inc/1. inc) (RIPK2): 0.06
rAVERAGE (control/1. inc) (RIPK2): 0.02
% BOUND (RIPK2; bound to AX14596 beads): 94%

CC(C)n1c(=O)ccc2cnc(Nc3ccc(OCCN)cc3)nc21 [V16742]
rAVERAGE (CTRL/1 INC) (NT5DC1 (IPI00177965); control beads vs first incubation): 0.07
Ki (NT5DC1 (IPI00177965); immobilized VI16742): 94.8 µM
rAVERAGE (2 INC/1 INC) (NT5DC1 (IPI00177965); second vs first incubation): 0.65
Percent bound at various 16742 conc (BUB1; Experiment 1, 1.87 μM 16742): 2.46%
Percent bound at various 16742 conc (BUB1; Experiment 1, 8.74 μM 16742): 11.95%
Percent bound at various 16742 conc (BUB1; Experiment 1, 52 μM 16742): 50.46%
Percent bound at various 16742 conc (BUB1; Experiment 2, 52 μM 16742): 47.87%
Kd (BUB1; single Kd value, obtained from only one experiment): 53.4 µM
Percent bound at various 16742 conc (MAP3K2; Experiment 1, 1.87 μM 16742): 4.06%
Percent bound at various 16742 conc (MAP3K2; Experiment 1, 8.74 μM 16742): 14.72%
Percent bound at various 16742 conc (MAP3K2; Experiment 1, 52 μM 16742): 49.07%
Kd (MAP3K2; Experiment 1, read-out: Kd): 53.2 µM
Percent bound at various 16742 conc (MAP3K2; Experiment 2, 1.87 μM 16742): 3.52%
Percent bound at various 16742 conc (MAP3K2; Experiment 2, 8.74 μM 16742): 14.47%
Percent bound at various 16742 conc (MAP3K2; Experiment 2, 52 μM 16742): 48.40%
Kd (MAP3K2; Experiment 2, read-out: Kd): 54.7 µM
Kd (MAP3K2; average of two experiments, read-out: Kd Avg): 53.9 µM
